# Laboratory results as given in a melting point compilation (Tetko et al.; mined from patent text by program, amines drawn as free bases though some values may be those of a salt).
row,Structure (SMILES),melting point [°C]
1,Nc1c2c(nc3ccccc13)CC(O)CC2O (stereo not drawn),158 to 162
2,Cc1cccc2nc(C(S)c3ncnc4[nH]cnc34)n(-c3ccccc3Cl)c(=O)c12 (stereo not drawn),228 to 230
3,CCN(C)C(=N)N[N+](=O)[O-],124 to 125
4,CCc1cc(=O)n(-c2cc3[nH]c(=O)sc3cc2F)c(=O)n1C,> 250
5,CCC(CC)(CCS(N)(=O)=O)COc1nn2ncnc2cc1C,148 to 149
6,NC(=O)[C@@H]1[C@H](Nc2c(Br)cnc3[nH]c(-c4cncnc4)nc23)[C@H]2C=C[C@@H]1C2,> 300
7,Cc1cccn2cc(CCl)nc12,115 to 117
8,CCn1c(=O)c(C(=O)O)nc2ccc(F)cc21,162 to 164
9,CCOCCn1c(N2CCCN(CCC3(c4ccncc4)CCN(C(=O)c4cc(OC)c(OC)c(OC)c4)C3)CC2)nc2ccccc21 (stereo not drawn),85 to 95
10,CC=CC(=O)c1c(CCC)[nH]c2cc(C(=O)OC)ccc12,153 to 154
11,CC1(C)CC(=O)C2C(=NC3=C(C(=O)CC(C)(C)C3)C2c2ccc(F)c(C#N)c2)C1 (stereo not drawn),274 to 275
12,ClCCn1cnc2c(NC3CCCCC3)nc(Cl)nc21,150 to 152
13,CCOC(=O)c1cn(-c2nc(NC(C)C)c(F)cc2F)c2c(Cl)c(F)c(F)cc2c1=O,206 to 209
14,NC1=c2c3c(ccc2=CCS1)CCCN3,214 to 216
15,Cc1ccc(S(=O)(=O)N2CC2CBr)cc1 (stereo not drawn),75 to 78
16,CCC(=C(c1ccccc1)c1ccc(N(CCN(CC)CC)S(C)(=O)=O)cc1)c1ccc(OC)cc1,120 to 130
17,Cc1cc(NC(=O)C(C)(O)COc2cc(F)cc(F)c2)ccc1[N+](=O)[O-] (stereo not drawn),104 to 106
18,COCCOCCOc1ccc(NC(=O)NCc2ccc3c(c2)CN(C2CCC(=O)NC2=O)C3=O)cc1Cl (stereo not drawn),188 to 190
19,CCC(CC)n1cc(C)nc(N2CCc3cc(Cl)cc(Cl)c32)c1=O,137 to 139
20,COc1nc(=O)c(Cc2ccc(C)nc2)c[nH]1,145 to 147
21,CCCCNC(=O)C(Cc1ccccc1)NC(=O)Nc1n[nH]c(=S)s1 (stereo not drawn),177 to 179
22,COC(=O)c1cc2c3c(Cl)cc(Cl)cc3n(C)c2s1,231 to 232
23,Cc1nn(C)c(C(N)=O)c1Cl,101
24,CC(Cl)N1C(=O)CCC1=O (stereo not drawn),83.5 to 84.5
25,COc1cc(Nc2nccc(-c3ccc(NCCCN4CCN(C)CC4)nc3)n2)cc(OC)c1OC,183 to 184

row,Structure (SMILES),melting point [°C]
1,CC1NC(=O)NN=C1c1ccc2c(c1)CCC(=O)N2CCO (stereo not drawn),237 to 243
2,CCCCc1nc(=O)c2cc(C#N)ccc2[nH]1,243 to 245
3,CC(C)(Cc1c(Cc2ccccc2)c2cc(OCc3ccc4ccccc4n3)ccc2n1Cc1ccc(Cl)cc1)C(=O)O,178
4,CCC1(CCCCN2CCN(c3ccccn3)CC2)C(=O)Nc2ccc(F)cc21 (stereo not drawn),144 to 147
5,O=C(O)C1c2cccnc2NN1C(=O)O (stereo not drawn),270 to 285
6,COc1ccc(C(=O)O)c2c1OCCCO2,186
7,O=C(Nc1cccc(-c2ccnc3c(C(=O)c4cccs4)cnn23)c1)OCC(Cl)(Cl)Cl,197 to 200
8,COc1ccc(NC(=O)OC(C)(C)C)c(C)c1,80 to 82
9,CC1CC(=Cc2cc(C(C)(C)C)c(O)c(C(C)(C)C)c2)C(=O)N1C(N)=O (stereo not drawn),195 to 196
10,CC(=O)OC1(C(C)=O)C(C)CC2C3CC(C)C4=CC(=O)C=CC4(C)C3(Br)C(O)CC21C (stereo not drawn),184 to 185
11,O=C(O)c1cc(Cl)cc2c1O[C@@H]1C=CCC[C@H]21 (relative stereo),147 to 150
12,Nc1nc(NCCO)c(Cl)nc1[N+](=O)[O-],196 to 197
13,COCCN(CCOC)Cc1nc(-c2ncn3c2[C@@H]2CCN2C(=O)c2c(Cl)cccc2-3)no1,188 to 190
14,CCC(CC)c1cccc2nc(C(O)c3c(C)cc(C)cc3C)n(C)c12 (stereo not drawn),132 to 134
15,CCC1Cc2cc(OC)c(Cl)c(Cl)c2C1=O (stereo not drawn),146 to 147
16,CN1CCN(c2cc(Cl)cc3c2c(=O)n(Cc2cccc(N)c2)c(=O)n3Cc2ccccc2)CC1,260 to 265
17,COC(=O)c1cncc(N(C)C(=O)C(C)CSC(C)=O)c1 (stereo not drawn),123 to 125
18,CCOCc1nc2c(N)nc(C)c(C)c2n1CCC1CCN(C(=O)N2CCOCC2)CC1,158 to 160
19,O=c1[nH]c2ncc(-c3ccc(-c4ncc[nH]4)cc3)nc2n1CC1CCCCC1,349 to 351
20,COc1ccc(CNc2ncnc3c2ncn3C2OC(CN=[N+]=[N-])C(O)C2O)cc1 (stereo not drawn),191
21,COc1ccccc1NC(=O)Nc1nc(Nc2ccccc2-c2ccccc2)nc(N(CCC(=O)O)CCc2ccccn2)n1,225 to 227
22,CCOC(=O)C(=CNc1ccccc1)C(=O)OCC,45 to 46
23,CC(C)c1cc(C(C)C)c(CCC(=O)O)c(C(C)C)c1,194 to 196
24,CCCCCCCCCCNC(=O)c1cc(C(=O)NCCCCCCCCCC)cc(N(CCCC(=O)OCC)CCCC(=O)OCC)c1,75 to 77
25,CC(=O)Nc1cc(Cl)c([N+](=O)[O-])cc1CCOC(C)=O,153

# Further lines, results first:
row,melting point [°C],Structure (SMILES)
1,287 to 288,COc1ccc2c(c1)c1c3c(c(-c4ccccc4Cl)cc1n2CCC#N)C(=O)NC3=O
2,211 to 215,CCCNc1cc(NS(=O)(=O)c2ccc(N)cc2)nc(NCCC)n1
3,105,CCN(CC)C(=O)COc1cc2ccccc2c(-c2ccccc2)n1
4,73,CCOC(=O)c1cc([N+](=O)[O-])cn1Cc1ccccc1
5,118,CCOC(=O)COc1cc(F)ccc1C(=S)NCc1cccc([N+](=O)[O-])c1
6,150 to 152,NC1=NN(c2ccccc2)C(c2ccc(Cl)c(Cl)c2)C1 (stereo not drawn)
7,131 to 132,O=C(O)c1cccc(-c2ccc3c(c2)N(c2ccc(Cl)cc2Cl)CCCC3)c1
8,158 to 182,COC(=O)Nc1nc2ccc(Sc3ccccc3)cn2c1CN1CCOCC1
9,97 to 99,O=[N+]([O-])c1ccc(-c2ccc(CCl)o2)cc1
10,198 to 199,COc1ccc(N=c2scc(-c3ccc(Cl)c(S(=O)(=O)N(C)C)c3)n2C)cc1
11,220 to 221,CSc1nnc2c3ccccc3c(-c3ccccc3)nn12
12,167 to 168,O=C(Nc1cccc(C(F)(F)F)c1)c1ccccc1SSc1ccccc1C(=O)Nc1cccc(C(F)(F)F)c1
13,134 to 137,NCCOc1cc(-c2ccccn2)nc(-c2ccccn2)c1
14,138 to 140,COC(=O)C[C@H](C(=O)OC)N1C(=O)[C@@H](N2C(=O)c3ccccc3C2=O)[C@H]1C=Cc1ccccc1
15,220,COc1ccccc1C1=C(C#N)C(c2ccccc2OC)c2c[nH]nc2N1 (stereo not drawn)
16,124 to 125,COc1ccc(CC(OC)C(=O)O)cc1NC(=O)Cc1ccc(C(F)(F)F)cc1 (stereo not drawn)
17,160 to 162,COc1nc(-c2ccccc2)c2ccsc2n1
18,102 to 104,N#CC1c2ccccc2C=Cc2ccccc21
19,112 to 114,CS(=O)(=O)Nc1cc([N+](=O)[O-])ccc1Oc1ccccc1
20,88 to 89.5,N=c1n(Cc2ccc(F)c(F)c2)c2ccc(Br)cc2n1Cc1ccc(F)c(F)c1
21,251 to 252,Nc1ccc(-c2n[nH]c(-c3ccncc3)n2)cc1
22,247 to 249,Cc1nc(-c2ccc(Cl)cc2)n(-c2ccc(S(N)(=O)=O)cc2)n1
23,116 to 117,Cc1oc(-c2ccccc2)nc1COc1ccc(C=O)cn1
24,122 to 125,CS(=O)(=O)OCCNC(=O)C(O)C(Oc1ccccc1[N+](=O)[O-])c1ccccc1 (stereo not drawn)

row,melting point [°C],Structure (SMILES)
1,175,CC(C)=CC(=O)Nc1ccc(F)cc1CCN1CCN(c2nsc3ccccc23)CC1
2,150 to 152,CCN(CC)S(=O)(=O)c1ccc(C(CC2CCCC2)C(=O)Nc2nc3ccc(OC)nc3s2)cc1 (stereo not drawn)
3,61 to 63,N#Cc1ccc([C@@H]2[C@@H]3C(=O)N(Cc4ccc5c(c4)OCO5)C(=O)[C@@H]3[C@H]3CCCN32)cc1 (racemic)
4,181 to 184,Fc1ccc(-c2cc(-c3cccs3)[nH]n2)cc1
5,188 to 191,CCc1nc2c(N)nc3ccccc3c2n1CCOCCNC(=O)c1ccccc1
6,172 to 173,COc1ccccc1NS(=O)(=O)c1ccc([N+](=O)[O-])cc1[N+](=O)[O-]
7,90 to 110,COCCNC(=O)c1cccc(-c2ccc(F)c3cc(Cc4cc(F)cc(Cl)c4)sc23)c1
8,113 to 114,CN[C@@H]1Cc2ccccc2[C@H]1Nc1ccccc1CO (relative stereo)
9,227,Nc1ccccc1C(=O)NCCN1CCC(n2c(=O)[nH]c3cc(Cl)ccc32)CC1
10,> 300,N#Cc1cc2c(-c3ccncc3)nccc2[nH]c1=O
11,182 to 184,Cc1cc(C)c(Nc2nc(C)ccc2S(=O)(=O)c2ccc(OCc3ccccn3)cc2)c(C)c1
12,159 to 160,COCc1cc2c(s1)CCc1cc(=O)n(-c3ccc(Cl)cc3)nc1-2
13,220 to 222,CC1(N2Cc3cc(CNC(=O)c4ccc(Cl)c(Cl)c4)ccc3C2=O)CCC(=O)NC1=O (stereo not drawn)
14,76 to 77,CCOC(=O)c1ccc(N)c(C)c1
15,72 to 75,COc1ccc(CCc2oc3cccc(O)c3c2C)cc1
16,133 to 134,CCNC(=O)Oc1cc2c(cc1Cl)CCN(C)C[C@H]2c1ccccc1
17,80 to 81,CC(C)CN(CC(C)C)c1ccc(C(=O)c2ccccc2)cc1[N+](=O)[O-]
18,183,Cc1cccc(NC(=O)NCC(=O)N(CC(=O)N2CCC3(CCCC3)CC2)c2ccccc2)c1
19,139 to 142,COc1ccccc1N1CCN(CNC(=O)c2cccc(C)c2)CC1
20,126 to 127,CC(C)Oc1ccc(-c2nc(O)c(C(=O)O)s2)cc1
21,68 to 70,O=C(C(=O)c1ccc(F)c(CF)c1)c1ccc(OC(F)F)cc1
22,158 to 160,O=[N+]([O-])c1ccc(Nc2cccc(O)c2)cc1
23,101 to 102,Cc1oc(-c2ccccc2)nc1COc1cccc(CO)c1
24,74 to 76,N#CCC1=C(n2nc(-c3c(-c4ccccc4)nn4ccccc34)ccc2=O)CCCC1
